BindingDB's records for patent US20250296922 (Shanghai Wennai Therapeutics Co, 2025)

Tests used:
Experiment in all cases: Human Liver Microsomal CYP Inhibition Test
Cytochrome P450 1A2 = target: T1, Cytochrome P450 1A2 (Homo sapiens, UniProt P05177)
T1 sequence (P05177 whole entry): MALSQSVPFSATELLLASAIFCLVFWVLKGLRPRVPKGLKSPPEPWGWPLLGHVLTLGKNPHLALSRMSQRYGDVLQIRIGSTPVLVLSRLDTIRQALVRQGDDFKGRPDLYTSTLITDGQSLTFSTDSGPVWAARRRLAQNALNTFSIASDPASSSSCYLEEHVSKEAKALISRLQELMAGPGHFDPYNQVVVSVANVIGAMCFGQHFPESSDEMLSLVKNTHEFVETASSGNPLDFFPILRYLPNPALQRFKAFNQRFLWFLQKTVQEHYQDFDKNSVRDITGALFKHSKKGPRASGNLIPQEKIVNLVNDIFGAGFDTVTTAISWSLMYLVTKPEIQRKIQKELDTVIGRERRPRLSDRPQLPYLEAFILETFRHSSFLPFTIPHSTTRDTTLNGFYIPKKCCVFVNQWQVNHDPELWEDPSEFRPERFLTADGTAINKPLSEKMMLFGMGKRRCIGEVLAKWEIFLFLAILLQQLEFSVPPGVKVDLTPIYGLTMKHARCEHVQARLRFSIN
Method: (§1) 3.5.1 the working solution preparation of the compound to be tested and the positive control (100×);3.5.2 Taking the liver microsomes from the −80° C. cryogenic freezer and melting on ice;3.5.3 Adding 20 μL of substrate solution to the appropriate wells and 20 μL of potassium phosphate buffer to the blank wells;3.5.4 Adding 2 μL of different concentrations of target compounds (final concentrations from 0.05 μM to 50 μM, 7 concentrations in total) or standard inhibitors to each well, with 2 μL of methanol solution in the non-inhibitor and blank wells;3.5.5 Adding 1.012 mL of liver microsomes to 78.988 mL of potassium phosphate buffer, then adding 158 μL of liver microsomes solution to all wells; preheating the well plate for 10 minutes in a 37° C. water bath;3.5.6 Weighing 129.1 mg NADPH (purchased from SyncoZymes Co. Ltd.) and adding to 15.0 mL of 33 Mm MgCl2 solution to give a 10 mM concentration, adding 20 μL to each well;3.5.7 Mixing and incubating the well plate in a 37° C. water bath for 10 minutes, then adding 400 μL of cold termination solution at the appropriate time point;3.5.8 Centrifuging the sample at 4000 rpm for 20 minutes to precipitate the protein. Transferring 200 μL of supernatant to 100 μL of HPLC water and shaking for 10 minutes. The samples were analyzed by LC/MS/MS.

Cytochrome P450 2C19 = Cytochrome P450 2C19 (Homo sapiens, UniProt P33261)
Method: as §1

Cytochrome P450 2C9 = Cytochrome P450 2C9 (Homo sapiens, UniProt P11712)
Method: as §1

Cytochrome P450 2D6 = Cytochrome P450 2D6 (Homo sapiens, UniProt P10635)
Method: as §1

Chain of Cytochrome P450 2C9 (P11712 whole entry): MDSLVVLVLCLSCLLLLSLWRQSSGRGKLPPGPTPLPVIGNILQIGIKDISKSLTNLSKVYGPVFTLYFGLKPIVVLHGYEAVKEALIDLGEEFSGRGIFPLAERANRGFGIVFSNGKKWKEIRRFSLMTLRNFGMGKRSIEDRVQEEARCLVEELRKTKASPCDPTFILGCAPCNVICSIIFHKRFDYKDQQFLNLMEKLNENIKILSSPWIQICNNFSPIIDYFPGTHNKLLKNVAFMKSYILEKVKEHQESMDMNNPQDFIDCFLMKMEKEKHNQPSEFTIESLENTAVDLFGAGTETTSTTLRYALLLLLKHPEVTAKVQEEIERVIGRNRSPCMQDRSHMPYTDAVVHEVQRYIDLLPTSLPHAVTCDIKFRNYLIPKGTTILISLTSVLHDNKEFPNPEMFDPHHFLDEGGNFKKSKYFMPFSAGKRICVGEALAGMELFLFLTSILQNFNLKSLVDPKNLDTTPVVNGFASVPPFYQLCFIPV
Chain of Cytochrome P450 2C19 (P33261 whole entry): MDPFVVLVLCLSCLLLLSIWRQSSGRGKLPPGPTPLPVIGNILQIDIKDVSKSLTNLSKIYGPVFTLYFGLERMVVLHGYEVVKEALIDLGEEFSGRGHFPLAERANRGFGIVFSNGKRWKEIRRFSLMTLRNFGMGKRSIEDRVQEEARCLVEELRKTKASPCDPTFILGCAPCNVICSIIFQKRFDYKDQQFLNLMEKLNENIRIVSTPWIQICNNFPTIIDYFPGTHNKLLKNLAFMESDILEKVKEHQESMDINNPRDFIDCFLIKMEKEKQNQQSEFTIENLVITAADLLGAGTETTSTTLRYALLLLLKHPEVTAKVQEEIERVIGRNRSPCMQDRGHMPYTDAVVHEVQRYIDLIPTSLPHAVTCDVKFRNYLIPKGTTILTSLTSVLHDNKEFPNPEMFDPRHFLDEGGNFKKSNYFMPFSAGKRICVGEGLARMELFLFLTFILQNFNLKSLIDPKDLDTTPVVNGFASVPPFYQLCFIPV
Chain of Cytochrome P450 2D6 (P10635 whole entry): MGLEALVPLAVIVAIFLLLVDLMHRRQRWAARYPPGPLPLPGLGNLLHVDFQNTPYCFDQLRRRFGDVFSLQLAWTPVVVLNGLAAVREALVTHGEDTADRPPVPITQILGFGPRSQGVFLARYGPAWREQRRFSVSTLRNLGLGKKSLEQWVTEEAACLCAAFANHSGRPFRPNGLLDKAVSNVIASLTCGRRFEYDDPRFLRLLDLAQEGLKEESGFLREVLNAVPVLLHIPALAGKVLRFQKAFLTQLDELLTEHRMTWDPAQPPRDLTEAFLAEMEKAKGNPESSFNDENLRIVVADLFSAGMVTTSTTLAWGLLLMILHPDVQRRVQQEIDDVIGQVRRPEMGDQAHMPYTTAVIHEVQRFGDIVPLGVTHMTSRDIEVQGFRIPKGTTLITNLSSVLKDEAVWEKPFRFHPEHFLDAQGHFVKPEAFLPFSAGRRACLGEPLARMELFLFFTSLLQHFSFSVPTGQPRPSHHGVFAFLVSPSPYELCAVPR

SMILES: COc1c([C@H]2[C@H](C(=O)Nc3ccc[n+]([O-])c3)C[C@@](C)(C(F)(F)F)[C@H]2C)ccc(F)c1F [US20250296922, Compound 7]
- IC50 (Cytochrome P450 1A2): > 50 µM
- IC50 (Cytochrome P450 2C19): 2.13 µM
- IC50 (Cytochrome P450 2C9): > 50 µM
- IC50 (Cytochrome P450 2D6): > 50 µM
